Data on four compounds can be found in US20110041725A1, “ANTICOAGULANTS AS ANTIFOULING AGENTS” (priority 2007, published 2011).

“Also recorded” adds a separate entry of the source.

Assay [1] relates to barnacle cement polymerization. The assay is described as follows: Barnacle cement polymerization in presence of anticoagulants, protein profile by SDS-PAGE. Type of assay: biochemical. Particulars: for inhibition of polymerization of barnacle cement (number and intensity of proteins): 2 μl anticoagulant added to 1 μl unpolymerized cement of thick, gummy phenotype barnacle, 2 minutes, versus distilled water. As to the method: FIG. 6. Protein profile for barnacle cement polymerized in the presence of distilled water (control) or one of 5 anticoagulants heparin, warfarin, trypsin inhibitor, EGTA or EDTA. Each peak represents an individual protein. For each treatment, 2 μl of either distilled water or anticoagulant was added to 1 μl unpolymerized cement taken from a thick, gummy phenotype barnacle. Polymerization was allowed to proceed for 2 minutes. Samples were analyzed with SDS-PAGE using a 4-20% acrylamide gel. The gel was stained with Coomassie Blue and analyzed using Scion Image.
Each peak represents an individual protein. For each treatment, 2 μl of either distilled water or anticoagulant was added to 1 μl unpolymerized cement taken from a thick, gummy phenotype barnacle. Polymerization was allowed to proceed for 2 minutes. Samples were analyzed with SDS-PAGE using a 4-20% acrylamide gel. The gel was stained with Coomassie Blue and analyzed using Scion Image.

The subject of another assay is barnacles. The assay is described as follows: Barnacle reattachment assay (removal force). It is filed as in vivo. Here is the method: A barnacle reattachment assay was performed in the presence and absence of heparin. The barnacle reattachment assay (Rittschof et al., under review) allows for rapid assessment of barnacle adhesive strength. In this assay barnacles are grown on non-toxic silicone substrates. Barnacles are removed from the silicone surface using a hand-held mechanical force gauge. Removed barnacles are then placed on another surface to which they are allowed to reattach for one week. As cement production is continuous throughout a barnacle's life, reattachment is possible and strength of adhesion after one week is nearly identical to initial strength of adhesion (when removed from, and reattached to the same silicone substrate). This assay was utilized to determine if a coating on a surface decreases strength of adhesion by removing a barnacle from silicone and allowing it to reattach to test and control surfaces. Reattachment trials for heparin were conducted by removing a barnacle from a silicone panel and reattaching it to clean glass panels or heparin coated glass panels. […] The reattachment removal force for the barnacles is represented by the gray bars. Barnacles were reattached to glass panels coated with 0 (control), 0.1, 1.0 or 10.0 mg ml^−1 heparin for 7 days. The removal force decreased for all barnacles on heparin treatments. […] This pattern was shown on both heparin coated silicone and heparin coated glass. […] The same group of barnacles was successively reattached to the same treatment for 1, 2, 3 and 4 days (in that order); n=10 barnacles for dH2O and sucrose, n=10 for heparin 1 day, and n=9 for heparin 2, 3 and 4 days. […] Statistical comparisons were not conducted on 2, 3, and 4 day trials as there is a potential for the results to be influenced by previous reattachment trials.

For assay [2], the system named is serine proteases active in barnacle cement polymerization. The assay is described as follows: SDS-PAGE protein signature of unpolymerized barnacle glue with and without heparin. Type of assay: biochemical. Particulars: reducing SDS-PAGE, 4-20% acrylamide gel, Coomassie Blue. As to the method: Techniques were developed and performed to harvest unpolymerized barnacle cement in microliter quantities. This enabled analysis of the proteins in barnacle cement using SDS-PAGE, which separates proteins based on size. SDS-PAGE provides a protein signature. SDS-PAGE was conducted under reducing conditions on a 4-20% acrylamide gradient gel in the presence and absence of heparin to determine any associated changes in protein signature (See FIG. 10). […] A precast, 4-20% acrylamide gel was used and stained with Coomassie Blue. […] The number of protein bands in the 85-115 kDa range is increased and of particular note, the 24 kDa protein and all the smaller peptides have disappeared in the presence of heparin.

Regarding `O=C(O)CN(CCN(CC(=O)O)CC(=O)O)CC(=O)O` [EDTA], the “inhibition of polymerization of barnacle cement (number and intensity of proteins)” value (“inhibition” for short) in assay [1] is on record as “effectively inhibit the polymerization of barnacle cement; also recorded: inhibited”.

Turning to `O=C(O)CN(CCOCCOCCN(CC(=O)O)CC(=O)O)CC(=O)O` [EGTA], the “inhibition” value in assay [1] is “effectively inhibit the polymerization of barnacle cement; also recorded: inhibited”.

For the compound `CC(=O)CC(c1ccccc1)c1c(O)c2ccccc2oc1=O` (stereo not drawn) [warfarin], the “inhibition” value in assay [1] was “effectively inhibit the polymerization of barnacle cement”.

Turning to heparin, in the assay with barnacles (1 mg ml^-1 coated T2 silicone, 1 day reattachment, p<0.05), the “mean removal force versus sucrose” value is on record as “significant difference from the sucrose results”. Also, the “reattachment removal force versus initial removal force” value in the assay with barnacles (10 mg ml^-1 heparin coated glass, 7 days, paired samples t-test p=0.017) is on record as “highly significant difference from initial removal force”. In the assay with barnacles (glass panels coated with 0.1, 1.0 or 10.0 mg ml^-1 heparin, reattached 7 days), the reattachment removal force result was “decreased”. Further, the “force required for removal as concentration increases” value with barnacles (heparin 0.1 to 10 mg ml^-1, heparin coated silicone and heparin coated glass) is reported as “stepwise decrease”. Besides, the “removal force over time reattached” value with barnacles (heparin coated surfaces, reattached 1, 2, 3 and 4 days) is given as “no increase in removal force with increasing time reattached”. In assay [1], the “inhibitory effect on cement polymerization compared with the other anticoagulant compounds tested” value was “most extensive and consistent inhibitory effect”; the “inhibition” value is recorded as “effectively inhibit the polymerization of barnacle cement”. Moreover, in assay [2], the “bands smaller than 31 kDa (serine proteases and their peptide products)” value is “do not appear when heparin is added”; the “protein signature of barnacle glue” value is given as “significantly different”.
